Measurements published in the supplement of paper PMC10307832.

Tests used:
XMD14-99 + Trametinib = compound: CN1CCN(CC1)C2=CC(=C(C=C2)NC3=NC(=C(S3)C(=O)C4=C(C=CC=C4Cl)Cl)N)OC [XMD14-99] + CC(=O)Nc1cccc(-n2c(=O)n(C3CC3)c(=O)c3c(Nc4ccc(I)cc4F)n(C)c(=O)c(C)c32)c1 [Trametinib] (partner 0.02 µM); assay: relative viability (nuclei count vs DMSO), 5 days (fraction); higher = more cells survive
Procedure, shortened: (§1)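 Lung cancer cell lines, seeded in 1536-well plates, were treated the following day by pin tool with a single drug or with five library-drug doses (not always all listed) in √10 steps on top of a fixed anchor-drug dose. Cells were fixed and nuclei stained in one step after 5 days, and nuclei were counted. Relative viability is the nuclei count for treated wells divided by that for vehicle wells, reported as medians of duplicate plates.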

AZD1208 + Dasatinib = compound: N[C@@H]1CCCN(c2c(/C=C3\SC(=O)NC3=O)cccc2-c2ccccc2)C1 [AZD1208] + Cc1nc(Nc2ncc(C(=O)Nc3c(C)cccc3Cl)s2)cc(N2CCN(CCO)CC2)n1 [Dasatinib] (partner 0.075 µM); assay: as above
Procedure, shortened: as §1

## HCC-44
XMD14-99 + Trametinib; first compound 0.08 µM
  relative viability: 1.02
XMD14-99 + Trametinib; first compound 0.8 µM
  relative viability: 1.04
XMD14-99 + Trametinib; first compound 2.53 µM
  relative viability: 1.11
XMD14-99 + Trametinib; first compound 8 µM
  relative viability: 1.01

## HCC-827
XMD14-99 + Trametinib; first compound 0.08 µM
  relative viability: 0.539
XMD14-99 + Trametinib; first compound 0.8 µM
  relative viability: 0.529
XMD14-99 + Trametinib; first compound 2.53 µM
  relative viability: 0.542
XMD14-99 + Trametinib; first compound 8 µM
  relative viability: 0.432
AZD1208 + Dasatinib; first compound 0.08 µM
  relative viability: 0.286
AZD1208 + Dasatinib; first compound 0.253 µM
  relative viability: 0.297
AZD1208 + Dasatinib; first compound 0.8 µM
  relative viability: 0.263
AZD1208 + Dasatinib; first compound 2.53 µM
  relative viability: 0.255
AZD1208 + Dasatinib; first compound 8 µM
  relative viability: 0.247

## NCI-H1623
AZD1208 + Dasatinib; first compound 0.08 µM
  relative viability: 0.633
AZD1208 + Dasatinib; first compound 0.253 µM
  relative viability: 0.514
AZD1208 + Dasatinib; first compound 0.8 µM
  relative viability: 0.484
AZD1208 + Dasatinib; first compound 2.53 µM
  relative viability: 0.438
AZD1208 + Dasatinib; first compound 8 µM
  relative viability: 0.632

## NCI-H2405
XMD14-99 + Trametinib; first compound 0.08 µM
  relative viability: 0.641
XMD14-99 + Trametinib; first compound 0.8 µM
  relative viability: 0.751
XMD14-99 + Trametinib; first compound 2.53 µM
  relative viability: 0.626
XMD14-99 + Trametinib; first compound 8 µM
  relative viability: 0.575
AZD1208 + Dasatinib; first compound 0.08 µM
  relative viability: 0.205
AZD1208 + Dasatinib; first compound 0.253 µM
  relative viability: 0.198
AZD1208 + Dasatinib; first compound 0.8 µM
  relative viability: 0.202
AZD1208 + Dasatinib; first compound 2.53 µM
  relative viability: 0.21
AZD1208 + Dasatinib; first compound 8 µM
  relative viability: 0.184

## PC-3 [JPC-3]
XMD14-99 + Trametinib; first compound 0.08 µM
  relative viability: 0.749
XMD14-99 + Trametinib; first compound 0.8 µM
  relative viability: 0.59
XMD14-99 + Trametinib; first compound 2.53 µM
  relative viability: 0.645
XMD14-99 + Trametinib; first compound 8 µM
  relative viability: 0.577
AZD1208 + Dasatinib; first compound 0.08 µM
  relative viability: 1.13
AZD1208 + Dasatinib; first compound 0.253 µM
  relative viability: 1.11
AZD1208 + Dasatinib; first compound 0.8 µM
  relative viability: 1.01
AZD1208 + Dasatinib; first compound 2.53 µM
  relative viability: 1.05
AZD1208 + Dasatinib; first compound 8 µM
  relative viability: 0.957

## NCI-H1651
XMD14-99 + Trametinib; first compound 0.08 µM
  relative viability: 0.827
XMD14-99 + Trametinib; first compound 0.8 µM
  relative viability: 0.835
XMD14-99 + Trametinib; first compound 2.53 µM
  relative viability: 0.88
XMD14-99 + Trametinib; first compound 8 µM
  relative viability: 0.835
AZD1208 + Dasatinib; first compound 0.08 µM
  relative viability: 0.406
AZD1208 + Dasatinib; first compound 0.253 µM
  relative viability: 0.461
AZD1208 + Dasatinib; first compound 0.8 µM
  relative viability: 0.38
AZD1208 + Dasatinib; first compound 2.53 µM
  relative viability: 0.319
AZD1208 + Dasatinib; first compound 8 µM
  relative viability: 0.307

## HARA
XMD14-99 + Trametinib; first compound 0.08 µM
  relative viability: 0.577
XMD14-99 + Trametinib; first compound 0.8 µM
  relative viability: 0.549
XMD14-99 + Trametinib; first compound 2.53 µM
  relative viability: 0.465
XMD14-99 + Trametinib; first compound 8 µM
  relative viability: 0.466
AZD1208 + Dasatinib; first compound 0.08 µM
  relative viability: 0.284
AZD1208 + Dasatinib; first compound 0.253 µM
  relative viability: 0.273
AZD1208 + Dasatinib; first compound 0.8 µM
  relative viability: 0.236
AZD1208 + Dasatinib; first compound 2.53 µM
  relative viability: 0.261
AZD1208 + Dasatinib; first compound 8 µM
  relative viability: 0.284

## NCI-H1650
XMD14-99 + Trametinib; first compound 0.08 µM
  relative viability: 0.642
XMD14-99 + Trametinib; first compound 0.8 µM
  relative viability: 0.738
XMD14-99 + Trametinib; first compound 2.53 µM
  relative viability: 0.542
XMD14-99 + Trametinib; first compound 8 µM
  relative viability: 0.503
AZD1208 + Dasatinib; first compound 0.08 µM
  relative viability: 0.267
AZD1208 + Dasatinib; first compound 0.253 µM
  relative viability: 0.311
AZD1208 + Dasatinib; first compound 0.8 µM
  relative viability: 0.255
AZD1208 + Dasatinib; first compound 2.53 µM
  relative viability: 0.261
AZD1208 + Dasatinib; first compound 8 µM
  relative viability: 0.296

## NCI-H1395
XMD14-99 + Trametinib; first compound 0.08 µM
  relative viability: 0.992
XMD14-99 + Trametinib; first compound 0.8 µM
  relative viability: 1.05
XMD14-99 + Trametinib; first compound 2.53 µM
  relative viability: 0.958
XMD14-99 + Trametinib; first compound 8 µM
  relative viability: 1
AZD1208 + Dasatinib; first compound 0.08 µM
  relative viability: 0.453
AZD1208 + Dasatinib; first compound 0.253 µM
  relative viability: 0.373
AZD1208 + Dasatinib; first compound 0.8 µM
  relative viability: 0.36
AZD1208 + Dasatinib; first compound 2.53 µM
  relative viability: 0.38
AZD1208 + Dasatinib; first compound 8 µM
  relative viability: 0.356

## NCI-H1993
XMD14-99 + Trametinib; first compound 0.08 µM
  relative viability: 0.593
XMD14-99 + Trametinib; first compound 0.8 µM
  relative viability: 0.522
XMD14-99 + Trametinib; first compound 2.53 µM
  relative viability: 0.614
XMD14-99 + Trametinib; first compound 8 µM
  relative viability: 0.54
AZD1208 + Dasatinib; first compound 0.08 µM
  relative viability: 0.507
AZD1208 + Dasatinib; first compound 0.253 µM
  relative viability: 0.519
AZD1208 + Dasatinib; first compound 0.8 µM
  relative viability: 0.54
AZD1208 + Dasatinib; first compound 2.53 µM
  relative viability: 0.536
AZD1208 + Dasatinib; first compound 8 µM
  relative viability: 0.459

## LU99A
XMD14-99 + Trametinib; first compound 0.08 µM
  relative viability: 0.559
XMD14-99 + Trametinib; first compound 0.8 µM
  relative viability: 0.61
XMD14-99 + Trametinib; first compound 2.53 µM
  relative viability: 0.512
XMD14-99 + Trametinib; first compound 8 µM
  relative viability: 0.394
AZD1208 + Dasatinib; first compound 0.08 µM
  relative viability: 0.451
AZD1208 + Dasatinib; first compound 0.253 µM
  relative viability: 0.556
AZD1208 + Dasatinib; first compound 0.8 µM
  relative viability: 0.363
AZD1208 + Dasatinib; first compound 2.53 µM
  relative viability: 0.572
AZD1208 + Dasatinib; first compound 8 µM
  relative viability: 0.389

## NCI-H1355
XMD14-99 + Trametinib; first compound 0.08 µM
  relative viability: 0.439
XMD14-99 + Trametinib; first compound 0.8 µM
  relative viability: 0.434
XMD14-99 + Trametinib; first compound 2.53 µM
  relative viability: 0.355
XMD14-99 + Trametinib; first compound 8 µM
  relative viability: 0.33
AZD1208 + Dasatinib; first compound 0.08 µM
  relative viability: 0.732
AZD1208 + Dasatinib; first compound 0.253 µM
  relative viability: 0.55
AZD1208 + Dasatinib; first compound 0.8 µM
  relative viability: 0.628
AZD1208 + Dasatinib; first compound 2.53 µM
  relative viability: 0.641
AZD1208 + Dasatinib; first compound 8 µM
  relative viability: 0.48

## HCC-78
XMD14-99 + Trametinib; first compound 0.08 µM
  relative viability: 0.628
XMD14-99 + Trametinib; first compound 0.8 µM
  relative viability: 0.711
XMD14-99 + Trametinib; first compound 2.53 µM
  relative viability: 0.753
XMD14-99 + Trametinib; first compound 8 µM
  relative viability: 0.438
AZD1208 + Dasatinib; first compound 0.08 µM
  relative viability: 0.421
AZD1208 + Dasatinib; first compound 0.253 µM
  relative viability: 0.439
AZD1208 + Dasatinib; first compound 0.8 µM
  relative viability: 0.328
AZD1208 + Dasatinib; first compound 2.53 µM
  relative viability: 0.35
AZD1208 + Dasatinib; first compound 8 µM
  relative viability: 0.34

## NCI-H1563
AZD1208 + Dasatinib; first compound 0.08 µM
  relative viability: 0.465
AZD1208 + Dasatinib; first compound 0.253 µM
  relative viability: 0.433
AZD1208 + Dasatinib; first compound 0.8 µM
  relative viability: 0.421
AZD1208 + Dasatinib; first compound 2.53 µM
  relative viability: 0.447
AZD1208 + Dasatinib; first compound 8 µM
  relative viability: 0.395

## HCC-15
XMD14-99 + Trametinib; first compound 0.08 µM
  relative viability: 0.415
XMD14-99 + Trametinib; first compound 0.8 µM
  relative viability: 0.412
XMD14-99 + Trametinib; first compound 2.53 µM
  relative viability: 0.353
XMD14-99 + Trametinib; first compound 8 µM
  relative viability: 0.349
AZD1208 + Dasatinib; first compound 0.08 µM
  relative viability: 0.57
AZD1208 + Dasatinib; first compound 0.253 µM
  relative viability: 0.487
AZD1208 + Dasatinib; first compound 0.8 µM
  relative viability: 0.489
AZD1208 + Dasatinib; first compound 2.53 µM
  relative viability: 0.492
AZD1208 + Dasatinib; first compound 8 µM
  relative viability: 0.368

## EKVX
XMD14-99 + Trametinib; first compound 0.08 µM
  relative viability: 0.321
XMD14-99 + Trametinib; first compound 0.8 µM
  relative viability: 0.298
XMD14-99 + Trametinib; first compound 2.53 µM
  relative viability: 0.382
XMD14-99 + Trametinib; first compound 8 µM
  relative viability: 0.294
AZD1208 + Dasatinib; first compound 0.08 µM
  relative viability: 0.637
AZD1208 + Dasatinib; first compound 0.253 µM
  relative viability: 0.245
AZD1208 + Dasatinib; first compound 0.8 µM
  relative viability: 0.51
AZD1208 + Dasatinib; first compound 2.53 µM
  relative viability: 0.498
AZD1208 + Dasatinib; first compound 8 µM
  relative viability: 0.48

## NCI-H2126
XMD14-99 + Trametinib; first compound 0.08 µM
  relative viability: 0.545
XMD14-99 + Trametinib; first compound 0.8 µM
  relative viability: 0.569
XMD14-99 + Trametinib; first compound 2.53 µM
  relative viability: 0.621
XMD14-99 + Trametinib; first compound 8 µM
  relative viability: 0.56
AZD1208 + Dasatinib; first compound 0.08 µM
  relative viability: 0.554
AZD1208 + Dasatinib; first compound 0.253 µM
  relative viability: 0.453
AZD1208 + Dasatinib; first compound 0.8 µM
  relative viability: 0.475
AZD1208 + Dasatinib; first compound 2.53 µM
  relative viability: 0.436
AZD1208 + Dasatinib; first compound 8 µM
  relative viability: 0.394

## LK-2
XMD14-99 + Trametinib; first compound 0.08 µM
  relative viability: 0.571
XMD14-99 + Trametinib; first compound 0.8 µM
  relative viability: 0.738
XMD14-99 + Trametinib; first compound 2.53 µM
  relative viability: 0.706
XMD14-99 + Trametinib; first compound 8 µM
  relative viability: 0.646
AZD1208 + Dasatinib; first compound 0.08 µM
  relative viability: 0.273
AZD1208 + Dasatinib; first compound 0.253 µM
  relative viability: 0.224
AZD1208 + Dasatinib; first compound 0.8 µM
  relative viability: 0.17
AZD1208 + Dasatinib; first compound 2.53 µM
  relative viability: 0.167
AZD1208 + Dasatinib; first compound 8 µM
  relative viability: 0.178

## NCI-H1437
XMD14-99 + Trametinib; first compound 0.08 µM
  relative viability: 0.532
XMD14-99 + Trametinib; first compound 0.8 µM
  relative viability: 0.402
XMD14-99 + Trametinib; first compound 2.53 µM
  relative viability: 0.347
XMD14-99 + Trametinib; first compound 8 µM
  relative viability: 0.305
AZD1208 + Dasatinib; first compound 0.08 µM
  relative viability: 0.495
AZD1208 + Dasatinib; first compound 0.253 µM
  relative viability: 0.297
AZD1208 + Dasatinib; first compound 0.8 µM
  relative viability: 0.337
AZD1208 + Dasatinib; first compound 2.53 µM
  relative viability: 0.296
AZD1208 + Dasatinib; first compound 8 µM
  relative viability: 0.337
